In patent US20110086872A1, “Berberine as a selective lung cancer agent and other compositions and methods” (priority 2007, published 2011):
Read-outs that look alike come from different tables or passages of the source.

Key:
[1] = test system: Lu1 human lung cancer cell line; assay: Cytotoxic activity against Lu1 cancer cell line; type: cell-based; settings: pure isolates
Experimental: The CHCl3 was fractionated over a silica gel column (5×60 cm, 700 g, 63-200 μm). For the column chromatography, a CHCl3/MeOH gradient solvent system was applied with a gradual increase of the MeOH content. Fourteen fractions were collected based on the similarity of their TLC profiles. The fractions were then evaluated for their cytotoxic activity against Lu1 cancer cell line in order to determine the active fractions. […] (See FIG. 4, Table 2).

[2] = test system: human cancer cell lines tested; assay: Cytotoxic activity against panel of human cancer cell lines; type: cell-based
[3] = target: T1, human immunodeficiency virus-1 reverse transcriptase (HIV-1 RT) (Human immunodeficiency virus type 1 group M subtype B, UniProt P03366); type: biochemical; settings: no unit or quantity printed
T1 construct: human immunodeficiency virus-1 reverse transcriptase (HIV-1 RT)
Experimental: (§1) The plant partitions were evaluated using in vitro bioassays based on a panel of human cancer cell lines: BC, Human Breast; Col2, Human Colon; KB, Human Carcinoma of the Nasopharynx; KBV1, Vinblastine-resistant KB; LNCaP, Hormone-dependent Human Prostate, and ZR75-1, Hormone-dependent Human Breast. These lines represent the main priorities for anticancer screening of the National Cancer Institute and have been well documented (Lin et al., J. Nat. Prod. 56: 22-29 (1993). In addition, samples were evaluated against the HIV-1 reverse transcriptase assay and, if active, against HIV-2 RT assay and a TIBO-resistant HIV-1 strain. Furthermore, some samples were tested for antimalarial activity (Angerhofer, Advances in Natural Products Chemistry, ed. Atta-ur-Rahman, pp 311-329 (1992)).
(§2) Thus, extracts, fractions and isolated compounds of plants were evaluated against three basic disease states: cancer, AIDS and malaria according to the published and established protocols and procedures. […] ((Angerhofer, Advances in Natural Products Chemistry, ed. Atta-ur-Rahman, pp 311-329 (1992), Monks et al., J. Nat'l Cancer Inst. 83: 11, 757-766 (1991), Tan et al., J. Nat. Product 54:143-154 (1991), Tan et al., Biochem. Biophysics. Res. Commun. 185:370-378 (1992), Geran et al., Cancer Chemother. Rep., Part 3, 3: 1-17 (1972), Skehan et al., J. Nat'l Cancer Inst. 82:1107-1112 (1990).)

[4] = test system: D6 clone of P. falciparum; assay: Antimalarial activity, D6 clone; type: cell-based
Experimental: as §1
as §2, with “(1990).) […]” for “(1990).)”

[5] = test system: W2 clone of P. falciparum; assay: Antimalarial activity, W2 clone; type: cell-based
Experimental: as §1
as §2, with “(1990).) […]” for “(1990).)”

[6] = test system: D6 clone of P. falciparum; settings: Vennestrom and Klayman, 1988; read-out: literature IC50 against D6 clone of P. falciparum; cited from earlier work
[7] = test system: W2 clone of P. falciparum; settings: Vennestrom and Klayman, 1988; read-out: literature IC50 against W2 clone of P. falciparum; cited from earlier work
[8] = test system: Colon, Col 2 human cancer cell line; settings: cited from earlier work
[9] = test system: Breast, BC1 human cancer cell line; settings: cited from earlier work
[10] = test system: Lung, Lu1 human cancer cell line; settings: cited from earlier work

Structure (SMILES)	IC50 [1]	IC50 ([2]; Homo sapiens, cancer cell lines other than lung, read-out: IC50 values, other cancer cell lines tested)	anti-HIV activity against HIV-1 RT, value [3]	selectivity index (SI), D6 ([4]; D6 clone)	IC50 ([4]; Plasmodium falciparum, D6, read-out: IC50 against D6 clone of P. falciparum)	IC50 ([5]; Plasmodium falciparum, W2, read-out: IC50 against W2 clone of P. falciparum)	selectivity index (SI), W2 ([5]; W2 clone)	IC50 [6]	IC50 [7]	IC50 [8]	IC50 [9]	IC50 [10]	IC50 ([2]; all cell lines of the panel, read-out: IC50 values against all of the human cancer cell lines tested)
COc1ccc2cc3[n+](cc2c1OC)CCc1cc2c(cc1-3)OCO2 [berberine]	11.9 µM	> 59.5 µM	353.3	53.6	1.1 µM	3.2 µM	18.7	0.42 µM	0.44 µM	40 µM	2.74 µM	25 µM	–
COc1ccc2c(c1OC)C(=O)N1CCc3cc4c(cc3C(=O)C21O)OCO4 (racemic) [(±)-Chilenine]	–	–	–	–	–	–	–	–	–	–	–	–	15.7 to 33.4 µM
